We go through 15 molecules from patent publication US20060276498A1 (Wyeth, priority 2005, published 2006).

Some results are limits rather than exact numbers.

For the first experiment, the target named is T1, human Cot/Tpl2 kinase (Homo sapiens, UniProt P41279).
T1 construct: human Cot/Tpl2 kinase construct encoding residues 30-398; 6His (N); made in house; host or cells: Sf9 insect cells (baculovirus system, BD Biosciences)
T1 sequence (P41279 30-398): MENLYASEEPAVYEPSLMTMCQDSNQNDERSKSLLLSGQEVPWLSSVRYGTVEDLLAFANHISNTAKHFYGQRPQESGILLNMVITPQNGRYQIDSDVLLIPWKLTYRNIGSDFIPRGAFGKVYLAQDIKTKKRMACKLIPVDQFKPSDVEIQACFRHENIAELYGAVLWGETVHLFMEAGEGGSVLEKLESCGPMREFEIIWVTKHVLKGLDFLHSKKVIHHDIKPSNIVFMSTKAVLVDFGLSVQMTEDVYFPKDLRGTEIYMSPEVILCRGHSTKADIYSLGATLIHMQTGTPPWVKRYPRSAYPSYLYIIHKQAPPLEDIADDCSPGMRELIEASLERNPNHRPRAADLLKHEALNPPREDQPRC
The experiment is described as follows: Tpl2/Cot kinase assay, GST-MEK1 phosphorylation detected by ELISA (DELFIA Eu). As to conditions: Table 1; 0.4 nM Tpl2, 35 nM GST-MEK1, 50 uM ATP, 1 h at 30° C. The class given is biochemical. In general terms: An ELISA detects its analyte on a solid surface through an enzyme-linked reagent.
As to `CN1CCN(CCCNc2cc3c(Nc4ccc(Cc5ccccc5)cc4)c(C#N)cnc3cn2)CC1` [Example 22, 4-(4-benzylphenylamino)-6-(3-(4-methylpiperazin-1-yl)propylamino)-1,7-naphthyridine-3-carbonitrile], inhibition was half-maximal at 0.079 µM (IC50). As for `N#Cc1cnc2cnc(NCc3cccnc3)cc2c1Nc1ccccc1` [Example 95, 4-Phenylamino-6-[(pyridin-3-ylmethyl)-amino]-[1,7]naphthyridine-3-carbonitrile], the IC50 (as a rule, the concentration that gives 50% inhibition) was 0.33 µM. `C[C@H](Nc1cc2c(Nc3ccc(F)c(Cl)c3)c(C#N)cnc2cn1)[C@H](O)c1ccccc1` [Example 54, 4-[(3-chloro-4-fluorophenyl)amino]-6-{[(1S, 2R)-2-hydroxy-1-methyl-2-phenylethyl]amino}-1,7-naphthyridine-3-carbonitrile] came in with an IC50 of 1.3 µM. On to `N#Cc1cnc2cnc(NCCN3CCOCC3)cc2c1Nc1cccc(N)c1` [Example 82, 4-(3-aminophenylamino)-6-(2-morpholinoethylamino)-1,7-naphthyridine-3-carbonitrile], for which the IC50 was above 10 µM. For `N#Cc1cnc2cnc(N)cc2c1Nc1ccc(F)c(Cl)c1` [Example 35, 6-amino-4-[(3-chloro-4-fluorophenyl)amino]-1,7-naphthyridine-3-carbonitrile], the midpoint of inhibition, the IC50, lay at 5 µM. With `CN(C)CCCNc1cc2c(Nc3ccc(F)c(Cl)c3)c(C#N)cnc2cn1` [Example 48, 4-[(3-chloro-4-fluorophenyl)amino]-6-{[3-(dimethylamino)propyl]amino}-1,7-naphthyridine-3-carbonitrile], 5 µM corresponded to half-maximal inhibition (IC50). In turn, `N#Cc1cnc2cnc(NCc3cccnc3)cc2c1Nc1ccc(F)c(Cl)c1` [Example 1, 4-(3-chloro-4-fluorophenylamino)-6-(pyridin-3-ylmethylamino)-1,7-naphthyridine-3-carbonitrile] returned an IC50 of 0.05 µM. `COc1ccc(Nc2c(C#N)cnc3cnc(NCCN4CCOCC4)cc23)cc1` [Example 31, 4-(4-methoxyphenylamino)-6-(2-morpholinoethylamino)-1,7-naphthyridine-3-carbonitrile] yielded an IC50 above 40 µM. In turn, `N#Cc1cnc2cnc(NCCN3CCOCC3)cc2c1Nc1cccc(C(N)=O)c1` [Example 86, 3-(3-cyano-6-(2-morpholinoethylamino)-1,7-naphthyridin-4-ylamino)benzamide] returned an IC50 above 10 µM.

The same experiment, now with this note: Table 2; additional representative compounds.
`C#CC(C)(C)Nc1c(C#N)cnc2cnc(NCc3cccnc3)cc12` [Example 138, 4-[(1,1-dimethylprop-2-ynyl)amino]-6-[(pyridin-3-ylmethyl)amino]-1,7-3-carbonitrile] returned an IC50 above 40 µM.

Consider `CC(C)(Nc1cc2c(Nc3ccc(F)c(Cl)c3)c(C#N)cnc2cn1)c1ccccc1` [Example 118, 4-[(3-chloro-4-fluorophenyl)amino]-6-[(1-methyl-1-phenylethyl)amino]-1,7-naphthyridine-3-carbonitrile], for which the midpoint of inhibition, the IC50, lay at 1.2 µM. Same read-out and setting: in the case of `N#Cc1cnc2cnc(NCc3cccnc3)cc2c1NC1CCCCCC1` [Example 113, 4-(cycloheptylamino)-6-[(pyridin-3-ylmethyl)amino]-1,7-naphthyridine-3-carbonitrile] it was 0.16 µM. Consider `N#Cc1cnc2cnc(F)cc2c1Nc1ccc(C(F)(F)F)cc1` [Example 100, 6-fluoro-4-{[4-(trifluoromethyl)phenyl]amino}-1,7-naphthyridine-3-carbonitrile], for which the IC50 was above 40 µM. In turn, `CS(=O)(=O)c1ccc(CNc2cc3c(NCc4ccc(S(C)(=O)=O)cc4)c(C#N)cnc3cn2)cc1` [Example 132, 4,6-bis{[4-(methylsulfonyl)benzyl]amino}-1,7-naphthyridine-3-carbonitrile] registered an IC50 of 16.9 µM.

Consider `N#Cc1cnc2cnc(NCc3c(Cl)cccc3Cl)cc2c1Nc1ccc(F)c(Cl)c1` [Example 126, 4-[(3-chloro-4-fluorophenyl)amino]-6-[(2,6-dichlorobenzyl)amino]-1,7-naphthyridine-3-carbonitrile], for which 24.6 µM corresponded to half-maximal inhibition (IC50).
